Patent US7732504B2, “Functionalized photoinitiators” (Ciba Specialty Chemicals Corporation, priority 2004, dated 2010)

Experiments:
[1] = Solubility of the initiator in the blue offset printing ink formulation; assay type: physicochemical; parameters: key: good (+); acceptable (±); bad (−)
Method: (§1) A photocurable blue offset printing ink is prepared in accordance with the following formulation: […]
18.3 g of Ebecryl® 1608 (UCB, Belgium)
18.3 g of Ebecryl® 657 (polyester acrylate from UCB, Belgium)
20.0 g of Ebecryl® 220 (urethane acrylate from UCB, Belgium)
20.9 g of Ebecryl® 150 (bisphenol A derivative diacrylate from UCB, Belgium)
22.5 g Irgalit blue GLO (Cu-phthalocyanine pigment from Ciba Specialty Chemicals)
(§2) The above components are grounded down to a stock paste. Portions of the stock paste are mixed with the photoinitiators indicated in the table (% by weight on the stock paste). The solubility of the initiator in the formulation is rated as good (+), acceptable (±) or bad (−) and the results shown in Table 1.

[2] = Curing of a blue offset printing ink on white paper (maximum rate of passage, 80 W/cm mercury lamp); settings: for curing rate (m/min) for surface cure / curing rate (m/min) for through cure: blue offset ink 1.5 g/m^2 on white paper, 80 W/cm mercury lamp
Method: Curing of a Blue Offset Printing Ink on White Paper
as §1, §2
The blue printing ink thus obtained is applied with 1.5 g/m^2 (˜1.5 μm thickness) on white paper using a Prüfbau laboratory printing equipment. The samples are exposed in an irradiation apparatus with a 80 W/cm mercury lamp (IST). The rate of passage of the sample through the irradiation apparatus is thereby increased continuously until adequate curing no longer occurs. The odor of the cured film is rated on a scale from 1 (odorless) to 3 (strong odor).

[3] = Curing of a blue flexo printing ink on a white polyethylene foil (maximum rate of passage, 120 W/cm mercury lamp); settings: conc 6.0 %, blue flexo ink on corona treated white polyethylene foil
Method: Curing of a Blue Flexo Printing Ink on a White Polyethylene Foil
(§3) A photocurable blue flexo printing ink is prepared in accordance with the following formulation: […]
as §2, with “2.” for “1.”
The blue printing ink thus obtained is applied with […] 1.5 μm thickness on a corona treated white polyethylene foil using a Prüfbau laboratory printing equipment. The samples are exposed in an irradiation apparatus with a 120 W/cm mercury lamp (IST). The rate of passage of the sample through the irradiation apparatus is thereby increased continuously until adequate curing no longer occurs. The adhesion of the cured film to the foil is measure by the Tesa tape test.

[4] = Solubility of the initiator in the blue flexo printing ink formulation; assay type: physicochemical; parameters: key: good (+); acceptable (±); bad (−); settings: photoinitiator conc 6.0 % by weight on the stock paste
Method: as §3
26.9 g of IRR 440 (flexo basic resin)
19.0 g of OTA 480 (acrylated trifunctional resin, UCB, Belgium)
18.0 g of Ebecryl® 645 (modified diacrylate of Bisphenol A epoxy resin diluted with 25% of TPGDA, from UCB, Belgium)
13.0 g of HDDA (1,6-hexanediol diacrylate)
10.0 g of Ebecryl® 220 (urethane acrylate from UCB, Belgium)
1.3 g of Ebecryl® 168 (methacrylated acidic compound from UCB, Belgium)
0.7 g of DC 57 (Leveling agent)
11.1 g Irgalit blue GLO (Cu-phthalocyanine pigment from Ciba Specialty Chemicals)
as §2, with “2.” for “1.”

[5] = photoinitiator conc 4.0 % by weight on the stock paste
[6] = photoinitiator conc 3.0 % by weight on the stock paste

Compound | solubility [1, 5] | curing rate (m/min) for surface cure ([2]; conc 4.0 %) [m/min] | curing rate (m/min) for through cure ([2]; conc 4.0 %) [m/min] | melting point [°C] | solubility [1, 6] | curing rate (m/min) for surface cure [3] [m/min] | curing rate (m/min) for through cure [3] [m/min] | curing rate (m/min) for surface cure ([2]; conc 3.0 %) [m/min] | curing rate (m/min) for through cure ([2]; conc 3.0 %) [m/min] | solubility [4] | efficiency as a photoinitiator compared with the reference compounds ([2]; blue offset printing ink, versus Irgacure 369 and Irgacure 907)
CSc1ccc(C(=O)C(C)(C)N2CCOCC2)cc1 [Irgacure 907] | + | 80 | 90 |  |  |  |  |  |  |  | 
CC(C)(C(=O)c1ccc(NCCO)cc1)N1CCOCC1 [Example 6, 1-[4-(2-hydroxyethyamino)phenyl]-2-methyl-2-(morpholin-4-yl)-1-propanone] |  |  |  | 77 to 78 |  |  |  |  |  |  | 
CCCC(CC)(C(=O)c1ccc(NCCO)cc1)N(C)C (stereo not shown) |  |  |  | 74 to 77 |  |  |  |  |  |  | 
CCC(Cc1ccccc1)(C(=O)c1ccc(N2CCOCC2)cc1)N(C)C (stereo not shown) [Irgacure 369, 2-benzyl-2-(dimethylamino)-1-[4-(4-morpholinyl)phenyl]-1-butanone] | − | 90 | 130 |  | − | 170 | 90 | 70 | 110 | + | 
CCC(Cc1ccccc1)(C(=O)c1ccc(NCCO)cc1)N(C)C (stereo not shown) [Example 1, 2-benzyl-1-[4-(2-hydroxyethylamino)phenyl]-2-dimethylamino-1-butanone] | + | 140 | 170 | 109 to 111 | + | 200 | 40 | 100 | 120 | + | more efficient as a photoinitiator than the reference compounds
